Assay results from patent US7531671B2, “Dihydroisoindolones as allosteric modulators of glucokinase” (Janssen Pharmaceutica N.V., priority 2005, dated 2009).
Where “and” joins values, the source holds several entries; their conditions need not be identical. Identical values can stand only once.

Target: T1, human liver Glucokinase (GK) (Homo sapiens, UniProt P35557)
T1 construct: (His)6; made in house; host or cells: Escherichia coli
T1 sequence (P35557 1-466 isoform P35557-2): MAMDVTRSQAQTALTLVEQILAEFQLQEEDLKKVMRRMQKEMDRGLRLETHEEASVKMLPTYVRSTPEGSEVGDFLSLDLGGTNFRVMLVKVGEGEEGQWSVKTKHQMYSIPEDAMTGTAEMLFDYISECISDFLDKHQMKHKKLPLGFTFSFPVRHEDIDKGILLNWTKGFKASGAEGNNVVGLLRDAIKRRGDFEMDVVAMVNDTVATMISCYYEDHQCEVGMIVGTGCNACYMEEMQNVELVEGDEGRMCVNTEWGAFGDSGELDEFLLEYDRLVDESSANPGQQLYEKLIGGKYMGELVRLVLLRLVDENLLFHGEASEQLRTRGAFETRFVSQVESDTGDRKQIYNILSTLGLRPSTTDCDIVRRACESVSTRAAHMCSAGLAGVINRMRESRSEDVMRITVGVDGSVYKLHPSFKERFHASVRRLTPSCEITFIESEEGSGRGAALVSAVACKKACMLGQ
Test: Glucokinase enzyme assay, Liver GK data
Type: biochemical
Settings: for EC50: concentration producing 50% activation above vehicle control; for EC100%: concentration producing 100% activation above vehicle control
Source text: An enzymatic Glucokinase (GK) assay using purified recombinant human liver/pancreas enzyme was used to evaluate the effects of potential small molecule modulators.
In this assay, GK catalyzes glucose phosphorylation in the presence of ATP. The product of this reaction, glucose-6-phosphate, was then oxidized by an excess of glucose-6-phosphate dehydrogenase to produce gluconate-6-phosphate with concomitant reduction of nicotinamide adenine dinucleotide (NAD). […] Human GK (Liver/Pancreas) was expressed in Escherichia coli as a (His) 6-tagged fusion protein and was purified by metal chelate affinity chromatography. The assay was performed in a final incubation volume of 80 μl in a 96-well clear low UV absorption plates. The incubation mixture consisted of 25 mM HEPES, 2 mM MgSO4, 1 mM dithiothreotol (DTT), 1 mg/ml bovine serum albumin (BSA), 1 mM ATP, 1 mM NAD, and 12 mM glucose, 10 units per ml glucose-6-phosphate dehydrogenase, and +/−300 ng per ml GK. For determination of the affinity (Km) and Vmax, different concentrations of glucose ranging from 0.5 mM to 40 mM were used in the assay; see Grimsby, J., Sarabu, R.; Grippo, J. F.; et. al. Science 2003, 301, 370-373. Production of reduced NAD (Nicotinamide Adenine Dinucleotide) was measured as changes in absorption at 340 nm in 96-well plate reader (Envision model # 2101 Multilabel Plate reader). % Activation @ 50 μM was calculated as the percentage increase in GK activity above the vehicle control with the effective concentration of the compound being 50 μM. EC50% (μM) was calculated as the effective concentration of the compound that produces 50% activation above the vehicle control, and EC100% (μM) was calculated as the effective concentration of the compound that produces 100% activation above the vehicle control.

[1] = compound 50 μM, percentage increase in GK activity above vehicle control, 12 mM glucose

SMILES: O=C(COC1c2ccccc2C(=O)N1Cc1ccccc1)Nc1ccccn1 (centres unmarked) [Compound 23, 2-(2-Benzyl-3-oxo-2,3-dihydro-1H-isoindol-1-yloxy)-N-pyridin-2-yl-acetamide]
- activation at 50 µM [1]: 164%
- EC50: 1.76 µM
- EC100%: 8.71 µM

SMILES: CCOC(=O)Cc1csc(NC(=O)CSC2c3ccccc3C(=O)N2Cc2cccs2)n1 (centres unmarked) [Compound 36, {2-[2-(3-Oxo-2-thiophen-2-ylmethyl-2,3-dihydro-1H-isoindol-1-ylsulfanyl)-acetylamino]-thiazol-4-yl}-acetic acid ethyl ester]
- activation at 50 µM [1]: 143%
- EC50: 9 µM

SMILES: COC(=O)c1ccc(NC(=O)COC2c3ccccc3C(=O)N2Cc2ccccc2)nc1 (centres unmarked) [Compound 37, 6-[2-(2-Benzyl-3-oxo-2,3-dihydro-1H-isoindol-1-yloxy)-acetylamino]-nicotinic acid methyl ester]
- activation at 50 µM [1]: 256%
- EC50: 0.57 µM
- EC100%: 1.57 µM

SMILES: O=C(CSC1c2ccccc2C(=O)N1Cc1ccc(Cl)cc1)Nc1nccs1 (centres unmarked) [Compound 30, 2-[2-(4-Chlorobenzyl)-3-oxo-2,3-dihydro-1H-isoindol-1-ylsulfanyl]-N-thiazol-2-yl-acetamide]
- activation at 50 µM [1]: 102%
- EC50: 9.5 µM

SMILES: O=C(CSC1c2ccccc2C(=O)N1Cc1ccco1)Nc1nccs1 (centres unmarked) [Compound 32, 2-(2-Furan-2-ylmethyl-3-oxo-2,3-dihydro-1H-isoindol-1-ylsulfanyl)-N-thiazol-2-yl-acetamide]
- activation at 50 µM [1]: 113%
- EC50: 9.2 µM

SMILES: O=C(CSC1c2ccccc2C(=O)N1Cc1cccs1)Nc1ncccn1 (centres unmarked) [Compound 16, 2-(3-Oxo-2-thiophen-2-ylmethyl-2,3-dihydro-1H-isoindol-1-ylsulfanyl)-N-pyrimidin-2-yl-acetamide]
- activation at 50 µM [1]: 13%

SMILES: CN(C)c1ccc(CN2C(=O)c3ccccc3C2SCC(=O)Nc2nccs2)cc1 (centres unmarked) [Compound 33, 2-[2-(4-Dimethylaminobenzyl)-3-oxo-2,3-dihydro-1H-isoindol-1-ylsulfanyl]-N-thiazol-2-yl-acetamide]
- activation at 50 µM [1]: 229%
- EC50: 2.6 µM

SMILES: O=C(CSC1c2ccccc2C(=O)N1Cc1ccccc1)Nc1ccc(C(=O)O)cn1 (centres unmarked) [Compound 19, 6-[2-(2-Benzyl-3-oxo-2,3-dihydro-1H-isoindol-1-ylsulfanyl)-acetyamino]-nicotinic acid]
- activation at 50 µM [1]: 146%
- EC50: 3.2 µM

SMILES: O=C(CNC1c2ccccc2C(=O)N1Cc1ccccc1)Nc1ccccn1 (centres unmarked) [Compound 27, 2-(2-Benzyl-3-oxo-2,3-dihydro-1H-isoindol-1-ylamine)-N-pyridin-2-yl-acetamide]
- % Activation @ 50 μM [1]: 228%
- EC50: 1.8 µM and 0.9 µM
- EC100%: 4.5 µM and 2.6 µM

SMILES: COc1ccc(CN2C(=O)c3ccccc3C2SCC(=O)Nc2nccs2)cc1 (centres unmarked) [Compound 29, 2-[2-(4-Methoxybenzyl)-3-oxo-2,3-dihydro-1H-isoindol-1-ylsulfanyl]-N-thiazol-2-yl-acetamide]
- activation at 50 µM [1]: 156%
- EC50: 4.4 µM
- EC100%: 17.6 µM

SMILES: COC(=O)c1ccc(NC(=O)CSC2c3ccccc3C(=O)N2Cc2ccccc2)nc1 (centres unmarked) [Compound 35, 6-[2-(2-Benzyl-3-oxo-2,3-dihydro-1H-isoindol-1-ylsulfanyl)-acetylamino]-nicotinic acid methyl ester]
- activation at 50 µM [1]: 171%
- EC100%: 2.9 µM and 3.0 µM

SMILES: O=C(CSC1c2ccccc2C(=O)N1Cc1cccs1)Nc1cnccn1 (centres unmarked) [Compound 31, 2-(3-Oxo-2-thiophen-2-ylmethyl-2,3-dihydro-1H-isoindol-1-ylsulfanyl)-N-pyrazin-2-yl-acetamide]
- activation at 50 µM [1]: 199%
- EC50: 4 µM
- EC100%: 12 µM

SMILES: COC(=O)c1ccc(NC(=O)CSC2c3ccccc3C(=O)N2Cc2cccs2)nc1 (centres unmarked) [Compound 34, 6-[2-(3-Oxo-2-thiophen-2-ylmethyl-2,3-dihydro-1H-isoindol-1-ylsulfanyl)-acetylamino]-nicotinic acid methyl ester]
- activation at 50 µM [1]: 180%
- EC50: 1 µM
- EC100%: 4.1 µM

SMILES: O=C(CSC1c2ccccc2C(=O)N1Cc1cccs1)Nc1nccs1 (centres unmarked) [Compound 14, 2-(3-Oxo-2-thiophen-2-ylmethyl-2,3-dihydro-1H-isoindol-1-ylsulfanyl)-N-thiazol-2-yl-acetamide]
- EC50: 5 µM
- EC100%: 19.4 µM

SMILES: O=C(COC1c2ccccc2C(=O)N1Cc1ccccc1)Nc1nccs1 (centres unmarked) [Compound 28, 2-(2-Benzyl-3-oxo-2,3-dihydro-1H-isoindol-1-yloxy)-N-thiazol-2-yl-acetamide]
- activation at 50 µM [1]: 73%
- EC50: 11.3 µM
